For nine molecules, EC50 results are on record in patent US20210277009A1, “PRMT5 INHIBITORS” (Merck Sharp & Dohme Corp., priority 2018, published 2021).

Read-outs that look alike come from different tables or passages of the source.

The target of experiment [1] is T1, PRMT5-MEP50 enzyme complex (Homo sapiens, UniProt O14744).
T1 construct: 1.25 nM of Full-length (FL)-PRMT5-MEP50 enzyme complex; made in house; host or cells: baculovirus-transfected Sf21 cells
As to the kind of experiment: PRMT5-MEP50 Enzyme Methylation Assay. It counts as biochemical. Here is the method: PRMT5-MEP50 biochemical assay is a direct measurement of the methylation activity of the enzyme complex on a short peptide substrate derived from the N-terminus of H4 histone. Methylation experiment is performed with recombinant PRMT5-MEP50 protein complex. The assessment of inhibitory effect of small molecules is measured by tire effectiveness of the compounds to inhibit tins reaction (EC50).
In this assay, the potency (EC50) of each compound was determined from a twenty-point (1:2 serial dilution; top compound concentration of 100000 nM) titration curve using the following outlined procedure. To each well of a white ProxiPlus 384 well-plate, 100 nL of compound (1% DMSO in final assay volume of 10 μL) was dispensed, followed by the addition of 8 μL of 1× assay buffer (50 mM Bicine pH 8.0, 1 mM DTT, 0.004% Tween20, 0.01% BSA) containing 1.25 nM of Full-length (FL)-PRMT5-MEP50 enzyme complex (recombinant proteins from baculovirus-transfected Sf21 cells: FL-PRMT5; MW=[…] and FL-MEP50; MW=38614) and 1 μL of 150 μM S-(5′-Adenosyl)-L-Methionine Chloride (SAM). Plates were sealed and placed in a 37° C. humidified chamber for a 60 minutes pre-incubation with compound. Subsequently, each reaction was initiated by the addition of 1 μL 1× assay buffer containing 750 nM biotinylated H4R3(Mel) peptide. The final reaction in each well of 10 μL consists of 1.0 nM PRMT5-MEP50, 75 nM biotinylated-peptide, and […] SAM. Methylation reactions were allowed to proceed for 150 minutes in a sealed plate at 37° C. Reactions were immediately quenched by the addition of 1 μL of 5% formic acid. Plates were then frozen and shipped to SAMDITM Tech Inc. to determine the percent conversion from H4R3(Mel) to H4R3(Me2). Dose-response curves were generated by plotting percent effect (% product conversion; Y-axis) vs. Log 10 compound concentrations (X-axis). EC50 values were determined by non-linear regression according to models for either sigmoidal (4 parameters) or biphasic (7 parameters) dose-response curves.

Experiment [2] has as its system symmetric dimethylation of arginine (SDMA) of PRMT5 substrates in MCF-7 cells. Put plainly: PRMT5 Cell Target Engagement (TE) Assay. The note with it: Homo sapiens, MCF7, 72 h, treated for 3 days, nuclear SDMA by high content imaging, top concentration 10000 nM. It counts as cell-based. The text has this: The PRMT5 TE assay is a biomarker assay for identifying compounds that inhibit symmetric dimethylation of arginine (SDMA) of PRMT5 substrates. The following substrates have been reported for PRMT5: histone H2A and H4 R3, Histone H3 R2, Histone H3 R8, spliceosome Sm proteins, ribosomal protein RPS10, p53, FEN1, nudeoplasmin, nucleolin, EGFR and EBNA. The assay will focus on detecting symmetrically dimethylated nuclear proteins using high content imaging technology. Detection of the expression of symmetrically dimethylated nuclear proteins is through a mixture of primary rabbit monoclonal antibodies to SDMA (CST 13222), which in turn recognized by an Alexafluor 488 dye-conjugated anti-rabbit IgG secondary antibody. The IN Cell Analyzer 2200 or Opera-Phenix measures nuclear Alexafluor 488 fluorescent dye intensity that is directly related to the level of expression of symmetrically dimethylated nuclear proteins at the single cell level. Nuclear AF488 dye intensities are compared to the mean value for DMSO treated cells (MIN) to report percent of inhibition for each compound-treated well.
In this assay, the cell potency (EC50) of each compound was determined from a ten point (1:3 serial dilution; top compound concentration of 10000 nM) titration curve using the following outlined procedure. Each well of a BD falcon collagen coated black/clear bottom 384-well plate was seeded with 4000 MCF-7 cells in 30 μl media and allowed to attach for 5 h. Media is ATCC-formulated Eagle's Minimum Essential Medium, Catalog No. 30-2003. To make the complete growth medium, the following components were added to the base medium: 0.01 mg/ml human recombinant insulin; fetal bovine serum to a final concentration of 10%. Additional 30 μl of media containing 2× compounds were added to each well. Cells were treated for 3 days in 37° C. CO2 incubator. On day 3, cells were fixed with Cytofix, permeablized with 0.4% Triton-X-100/Cytofix, and washed with D-PBS without Ca/Mg. Cells were blocked with Licor Odessey blocking reagent for 1 h at room temperature, followed by incubation with anti-SDMA (1:1000) antibody at 4° C. overnight. 1° antibody was removed, followed by three washings with DPBS without Ca/Mg and 0.05% Tween20. Hoechst (5 μg/ml), Cell Mask deep stain (1:2000) and Alexa488-conjugated goat anti-rabbit IgG (2 μg/mL) was added for 1 hour at room temperature. A final washing step (three washes) was performed before sealing plate for imaging on In Cell Analyzer 2200 or Opera-Phenix. Images from analyzer were uploaded to Columbus (at WP or BOS) for image analysis. IC50 values were determined by 4 parameters robust fit of percent fluorescence units vs. (Logic) compound concentrations.

Where [3] appears, read: single EC50 from 4 parameters single site sigmoidal model, or first EC50 of 7 parameters biphasic model, 1.0 nM PRMT5-MEP50, H4R3(Me1) peptide, SAM, read-out: Enzyme Methylation Assay (EC50 or EC50_1).
The mark [4] stands for this setting: second EC50 of 7 parameters biphasic model, read-out: Enzyme Methylation Assay (EC50_2).

T1 sequence (O14744 whole entry): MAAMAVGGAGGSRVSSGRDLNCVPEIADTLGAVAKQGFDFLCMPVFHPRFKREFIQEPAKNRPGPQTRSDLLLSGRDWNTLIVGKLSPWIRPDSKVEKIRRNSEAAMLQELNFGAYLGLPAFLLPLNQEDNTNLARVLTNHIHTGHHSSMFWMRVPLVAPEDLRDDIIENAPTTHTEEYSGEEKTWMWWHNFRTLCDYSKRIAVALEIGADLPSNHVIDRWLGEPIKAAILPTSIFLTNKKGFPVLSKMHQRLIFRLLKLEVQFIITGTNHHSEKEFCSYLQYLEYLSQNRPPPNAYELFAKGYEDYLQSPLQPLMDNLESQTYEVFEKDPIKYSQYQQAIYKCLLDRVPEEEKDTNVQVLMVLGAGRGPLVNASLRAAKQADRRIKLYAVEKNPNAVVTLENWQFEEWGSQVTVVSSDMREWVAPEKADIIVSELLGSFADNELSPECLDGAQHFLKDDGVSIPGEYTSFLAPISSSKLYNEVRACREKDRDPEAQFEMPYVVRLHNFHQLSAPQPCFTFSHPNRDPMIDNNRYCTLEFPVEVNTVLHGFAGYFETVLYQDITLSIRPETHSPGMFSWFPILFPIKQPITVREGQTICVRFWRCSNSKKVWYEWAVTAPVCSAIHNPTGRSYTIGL
T1 sequence (Q9BQA1 whole entry partner): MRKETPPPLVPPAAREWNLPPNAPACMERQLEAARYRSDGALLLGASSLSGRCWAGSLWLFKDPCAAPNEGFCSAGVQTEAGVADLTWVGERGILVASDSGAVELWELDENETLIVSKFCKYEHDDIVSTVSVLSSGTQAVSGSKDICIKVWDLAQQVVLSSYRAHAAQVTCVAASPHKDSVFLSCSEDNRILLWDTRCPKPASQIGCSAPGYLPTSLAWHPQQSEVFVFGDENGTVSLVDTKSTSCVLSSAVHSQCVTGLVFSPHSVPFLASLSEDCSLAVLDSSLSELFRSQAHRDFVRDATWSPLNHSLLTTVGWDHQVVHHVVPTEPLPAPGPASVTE

As to `CNc1ncnc2c1ccn2[C@@H]1S[C@](C)(CCc2ccc3cc(Br)c(N)nc3c2)[C@@H](O)[C@H]1O` [Example 33, (2R,3S,4R,5R)-2-(2-(2-amino-3-bromoquinolin-7-yl)ethyl)-2-methyl-5-(4-(methylamino)-7H-pyrrolo[2,3-d]pyrimidin-7-yl)tetrahydrothiophene-3,4-diol], the results for the EC50 in experiment [1] (setting [3]) and in experiment [2] were 0.8 nM and 13.5 nM, respectively.

As for `Cc1cn([C@@H]2S[C@H](CCc3ccc4cc(Br)c(N)nc4c3)[C@@H](O)[C@H]2O)c2ncnc(N)c12` [Example 34, (2R,3S,4R,5R)-2-(2-(2-amino-3-bromoquinolin-7-yl)ethyl)-5-(4-amino-5-methyl-7H-pyrrolo[2,3-d]pyrimidin-7-yl)tetrahydrothiophene-3,4-diol], the EC50 in experiment [1] (setting [4]) stood at 151 nM; in experiment [1] (setting [3]), 0.5 nM; in experiment [2], 29.1 nM.

On to `Cc1nc(N)c2ccn([C@@H]3S[C@H](CCc4ccc5cc(Br)c(N)nc5c4)[C@@H](O)[C@H]3O)c2n1` [Example 35, (2R,3R,4S,5R)-2-(4-amino-2-methyl-7H-pyrrolo[2,3-d]pyrimidin-7-yl)-5-(2-(2-amino-3-bromoquinolin-7-yl)ethyl)tetrahydrothiophene-3,4-diol], for which the EC50 is 1.7 nM in experiment [1] (setting [3]) and 35.6 nM in experiment [2].

As to `CNc1ncnc2c1ccn2[C@@H]1S[C@H](CCc2ccc3cc(Br)c(N)nc3c2)[C@@H](O)[C@H]1O` [Example 36], the EC50 in experiment [1] (setting [4]) was determined as 15.3 nM; in experiment [1] (setting [3]), 0.6 nM; in experiment [2] it was 81.1 nM.

As for `Nc1nc2cc(CC[C@H]3S[C@@H](n4cc(F)c5c(N)ncnc54)[C@H](O)[C@@H]3O)ccc2cc1Br` [Example 37, (2R,3S,4R,5R)-2-(2-(2-amino-3-bromoquinolin-7-yl)ethyl)-5-(4-amino-5-fluoro-7H-pyrrolo[2,3-d]pyrimidin-7-yl)tetrahydrothiophene-3,4-diol], the results for the EC50 in experiment [1] (setting [4]), in experiment [1] (setting [3]) and in experiment [2] were 16.2 nM, 0.4 nM and 9.5 nM, respectively.

For `Cc1nc(N)nc2c1ccn2[C@@H]1S[C@H](CCc2ccc3cc(Br)c(N)nc3c2)[C@@H](O)[C@H]1O` [Example 38, (2R,3S,4R,5R)-2-(2-(2-amino-3-bromoquinolin-7-yl)ethyl)-5-(2-amino-4-methyl-7H-pyrrolo[2,3-d]pyrimidin-7-yl)tetrahydrothiophene-3,4-diol], the EC50 in experiment [1] (setting [3]) amounted to 0.5 nM; in experiment [2], 7.2 nM.

On to `Cc1ncnc2c1ccn2[C@@H]1S[C@@H](CCc2ccc3cc(C(F)F)c(N)nc3c2)[C@@H](O)[C@H]1O` [Example 41, (2S,3S,4R,5R)-2-(2-(2-amino-3-(difluoromethyl)quinolin-7-yl)ethyl)-5-(4-methyl-7H-pyrrolo[2,3-d]pyrimidin-7-yl)tetrahydrothiophene-3,4-diol], for which the EC50 in experiment [1] (setting [4]) came out at 661 nM; in experiment [1] (setting [3]), 1.2 nM; in experiment [2] it was 123 nM.

For the molecule `Nc1nc2cc(CC[C@@H]3S[C@@H](n4ccc5c(N)ncnc54)[C@H](O)[C@@H]3O)ccc2cc1Cl` [Example 42, (2S,3S,4R,5R)-2-(2-(2-amino-3-chloroquinolin-7-yl)ethyl)-5-(4-amino-7H-pyrrolo[2,3-d]pyrimidin-7-yl)tetrahydrothiophene-3,4-diol], the EC50 in experiment [1] (setting [3]) was 0.8 nM; in experiment [2] it was 2.4 nM.

For `Nc1nc2cc(CC[C@H]3S[C@@H](n4ccc5c(N)ncnc54)[C@H](O)[C@@H]3O)ccc2cc1Cl` [Example 43, (2R,3S,4R,5R)-2-(2-(2-amino-3-chloroquinolin-7-yl)ethyl)-5-(4-amino-7H-pyrrolo[2,3-d]pyrimidin-7-yl)tetrahydrothiophene-3,4-diol], the EC50 in experiment [1] (setting [3]) was determined as 0.7 nM; in experiment [2], 2.4 nM.
